Converted amounts (≈) assume the structure as drawn. “And” between values parts separate entries of the source, which are not always exact repeats. Identical values can stand only once. Like-named read-outs stand apart in the source and are kept apart here.

For data set [1], the system named is wild-type E. coli BW25113. Description: Survival / persistence level (CFU) of stationary-phase culture diluted 1:20 into fresh LB with antibiotic. It counts as cell-based, Escherichia coli. The settings on record: for persistence survival level / persistence rate: monotherapy 10 hours, kanamycin 3 MIC, ciprofloxacin 20 MIC, ampicillin 20 MIC, polymyxin B 3 MIC. On the procedure:
(§1) The proportion of persisting cells in bacterial cultures typically reaches higher levels during the nutrient-depleted stationary phase. To investigate the persistence capacity of the model bacterium Escherichia coli(E. coli) against most bactericidal antibiotics, the standard BW25113 strain with E. coli K12 background was cultured at 37° C. in commercially available LB liquid medium until reaching the stationary phase. The culture was then inoculated at a 1:20 dilution into fresh LB liquid medium containing antibiotics at multiple dilutions of the minimum inhibitory concentration (MIC). Samples were collected after different treatment durations, and residual antibiotics were removed through two centrifugations. After tenfold serial dilution in physiological saline, the cultures were plated on LB agar plates without antibiotics. Survival colony-forming units (CFUs) were counted after two days of incubation, with initial CFU values before antibiotic addition serving as controls to calculate bacterial survival rates and persistence levels using conventional experimental methods. Testing for other bacteria followed the same protocol.
The culture was then incubated at 37° C. with shaking at 160 rpm for 10 hours. […] Each measurement was obtained from at least three independent experiments, with error bars representing the mean±standard deviation.

For another data set, the system named is E. coli hipA7 strain. The following applies: for survival rate / viability: monotherapy 10 hours, kanamycin 3 MIC, ciprofloxacin 20 MIC, ampicillin 20 MIC, polymyxin B 3 MIC, mitomycin C 3 MIC. On the procedure: as §1
(§2) Each measurement was obtained from at least three independent experiments, with error bars representing the mean±standard deviation.
as §2, §2

For data set [2], the system named is wild-type E. coli BW25113. Put plainly: Minimum inhibitory concentration (MIC). It counts as cell-based, Escherichia coli.
For data set [3] the following is noted: cited from earlier work.
In data set [4] the test system is E. coli hipA7 cells. Description: Cell membrane damage, propidium iodide (PI) staining. The settings on record: single drug. It counts as cell-based, Escherichia coli.
Protocol: Samples were incubated at 37° C. with 160 rpm shaking for 8 hours.
Parallel samples were treated with corresponding concentrations of individual drugs. Samples were collected at 0, 2, and 4 hours, with the addition of 5 μM PI dye 10 minutes prior to each collection time point. After washing with saline to remove antibiotics and extracellular dyes, cellular fluorescence intensity was analyzed by flow cytometry, with 100,000 cells analyzed per sample. The results from three independent experiments were basically the same. Representative data from one of the experiments were selected for plotting.
For data set [5], the system named is E. coli hipA7 cells. Description: Membrane potential, DiSC3(5) dye, flow cytometry. It counts as cell-based, Escherichia coli. The settings on record: 0.9 μg/mL polymyxin B, 20 μg/mL kanamycin, combined or alone; up to 8 hours.
Protocol: As represented by the combination antibiotic containing 0.9 μg/mL polymyxin B and 20 μg/mL kanamycin, the cell membrane damage in hipA7 cultures during stress-induced antibiotic killing was assessed. […] Samples were incubated at 37° C. with 160 rpm shaking for 8 hours. During sampling, 2.5 μM DiSC3 (5) was added in the first 10 minutes of each time point, followed by washing to remove the drugs and unbound dye. Flow cytometry was used to measure fluorescence intensity, with 100,000 cells analyzed per sample. […] Representative data from one of the experiments were selected for plotting.
[6] abbreviates: Escherichia coli, BW25113, read-out: MIC.
The mark [7] stands for this setting: clinical dosage guideline 2 mg/kg.

Take `CC1(C)S[C@@H]2[C@H](NC(=O)[C@H](N)c3ccccc3)C(=O)N2[C@H]1C(=O)O` [ampicillin]: the “persistence survival level / persistence rate” value in data set [1] stood at 0.001%. For the same molecule, the “survival rate / viability” value in the data set with E. coli hipA7 strain was “Approximately 10%”. The MIC in data set [2] (setting [6]) was 6 µg/mL (≈ 17.2 µM).
In the case of `O=C(O)c1cn(C2CC2)c2cc(N3CCNCC3)c(F)cc2c1=O` [ciprofloxacin], the “persistence survival level / persistence rate” value in data set [1] turned out to be 0.001%. Also, the “survival rate / viability” value with E. coli hipA7 strain was “Approximately 10%”. Further, the minimal inhibitory concentration (MIC) in data set [2] (setting [6]) came to 0.03 µg/mL (≈ 0.0905 µM).
As for `NC[C@H]1O[C@H](O[C@H]2[C@H](O)[C@@H](O[C@H]3O[C@H](CO)[C@@H](O)[C@H](N)[C@H]3O)[C@H](N)C[C@@H]2N)[C@H](O)[C@@H](O)[C@@H]1O` [kanamycin], the peak serum concentration in data set [3] (clinical) was 20 µg/mL and 18 to 20 µg/mL. The viability decreased in data set [1] (kanamycin 24 μg/mL (3 MIC), 10 hours) is 100,000 fold. Further, in data set [1], the “persistence survival level / persistence rate” value turned out to be 0.001%. The “survival rate, times higher than that of wild-type E. coli” value in the data set with E. coli hipA7 strain (3 MIC kanamycin, 10 hours) was 10,000 times. For the same molecule, the “survival rate / viability” value in the data set with E. coli hipA7 strain worked out at 10%. The MIC in data set [2] (setting [6]) was 8 µg/mL (≈ 16.5 µM).
As for `CO[C@@]12[C@H](COC(N)=O)C3=C(C(=O)C(C)=C(N)C3=O)N1C[C@@H]1N[C@@H]12` [mitomycin C], the minimum inhibitory concentration (MIC) in data set [2] worked out at 0.8 µg/mL (≈ 2.39 µM).
In the case of polymyxin, in data set [3] (setting [7]), the average serum concentration result is “approximately 2.8 μg/mL” and the serum concentration range is 680 to 4880 ng/mL.
For the molecule polymyxin B, the results for the “PI fluorescence (membrane disruption)” value in the data set with E. coli hipA7 cells [4] (after 2 hours) and with E. coli hipA7 cells [4] (after 4 hours) were “majority of cells showed no increase in PI fluorescence” and “only a minimal number of cells exhibiting detectable signals”, respectively. Further, in data set [1], the “persistence survival level / persistence rate” value came out at 0.001%. The “DiSC3(5) fluorescence signal (membrane potential)” value with E. coli hipA7 cells [5] is recorded as “no significant enhancement of DiSC3(5) fluorescence signal”. Moreover, the “survival rate / viability” value in the data set on E. coli hipA7 strain is on record as “Approximately 10%”. The molecule further showed a minimum inhibitory concentration (MIC) in data set [2] of 0.3 µg/mL.

These data come from patent US20260137754A1, “APPLICATION OF A COMBINATION DRUG IN THE TREATMENT OF PATHOGENIC BACTERIAL PERSISTENT INFECTIONS” (priority 2023, published 2026).
